From patent US20210346460A1, “TREATMENTS FOR COVID-19-RELATED SYSTEMIC SCLEROSIS, VASCULAR INSUFFICIENCY, DISTAL ISCHEMIA, AND RELATED DISEASE CONDITIONS” (priority 2020, published 2021)
Entries after “also recorded” stand apart in the source; their conditions may differ. Where two headings read alike, the source gives them in different places.

Experiments:
[1] = cited from earlier work
[2] = test system: pregnant systemic arteries; test: PGI2 release in pregnant systemic arteries
Source text: During experimentation between uterine vessels and systemic vessels during pregnancy, an inverse response between uterine and systemic vessels and their levels of PGI2 release was found. […] Pregnant uterine vessels, however, required GABA and angiotensin II to increase PGI2. The inventor has surmised that this mechanism is likely feto-productive in cases of hemorrhage and low blood volume during pregnancy. During these times, AII increases, dilating the uterine circuit and constricting the systemic circuit, thereby allowing the maternal blood to pass by the baby, prolonging the baby's chances of survival.
(§1) Accordingly, as may be observed, there is an inverse relationship depending on the vascular circuit.
(§2) With reference to FIGS. 5A and 5B, the inventor's laboratory data indicates the presence of GABA-a receptors in both systemic vessels and uterine vessel in pregnant animals. […] It may be noted that the third and last columns of FIG. 5A and the last two columns of FIG. 5B reflect competition on the GABA-a receptor between GABA and bicuculine. GABA improves PGI2 response substantially more in the absence of GABA-a receptor competition (e.g., bicuculine); and GABA with bicuculine improves PGI2 response substantially more than bicuculine alone.
(§3) With reference to FIG. 6, the inventor's laboratory data further illustrates that when the endothelium is removed from the pregnant uterine and systemic vessels, respectively, the PGI2 release trends that had been seen in the intact vessels is reversed. As may be observed, PGI2 release in pregnant uterine vessels is reduced in the presence of AII when the endothelium is removed; inversely, PGI2 release in pregnant systemic vessels is increased in the presence of AII when the endothelium is removed.

[3] = test system: intact nonpregnant systemic vessels; test: PGI2 release in intact nonpregnant systemic vessels (GABA dose response curves); parameters: species or system sheep; details: for PGI2 levels on addition of Nanomolar Ouabain: most concentrations of GABA
Source text: In FIGS. 2A-2C, GABA dose response curves of systemic vessels in 18 day postpartum sheep are provided. These vessels are believed to be representative of non-pregnant normotensive systemic vessels. […] Accordingly, it appears that at least one of Taurine or EO (or the like) may be needed to up-regulate the GABA-a receptor to augment PGI2 levels in the presence of nanomolar ouabain, or may at least be substantially helpful to increase PGI2 levels.
In FIG. 2C, the systemic vessels react to variable GABA in a similar manner as pregnant uterine vessels (see, e.g., FIG. 1B), but only in the presence of Ouabain.
Accordingly, the inventor has unexpectedly discovered that Ouabain exposure may modulate the PGI2 response through interaction with the GABA-a/AT1 construct.

[4] = test system: pregnant uterine arteries; test: PGI2 release in pregnant uterine arteries
Source text: as §1, §2, §3
FIG. 1A illustrates an Ouabain Dose Response Curve (“ODRC”) in pregnant uterine tissue. […] This may indicate inactivity of the GABA-a/AT1 construct without Taurine. It may have been expected that substantially less PGI2 would be released without AII than with AII. […] This may indicate an active GABA-a/AT1 construct under such conditions. […] Accordingly, the inventor has surmised that non-pregnant normotensive systemic vessel behave similarly to pregnant uterine vessels when exposed to Ouabain, releasing higher levels of PGI2 in the presence of GABA and AII.
This increase in PGI2 release in the presence of higher Ouabain may explain the EO resistance noted in pregnancy.

Cyclooxygenase (COX) = details: humans or rats, pharmacological blockade of COX; cited from earlier work

## CCCCOC(=O)NS(=O)(=O)c1sc(CC(C)C)cc1-c1ccc(Cn2ccnc2)cc1 [C21]
[1]; eHTN humans
  Blood pressure: not shown to reduce blood pressure

## NCCCC(=O)O [GABA]
[2]; pregnant systemic vessels, absence of angiotensin II
  PGI2 release on exposure to GABA: increased PGI2 release
[1]; normotensive patients
  Blood pressure: no effect
[3]; 18 day postpartum sheep systemic vessels, no EO or Taurine (FIG. 2A)
  PGI2 response to GABA: no PGI2 response
[4]; pregnant uterine arteries, GABA alone, no AII (FIG. 5B col. 2)
  PGI2 release on addition of GABA: insignificant effect on PGI2 release
[4]; pregnant uterine arteries, GABA with AII (FIG. 5B col. 1)
  PGI2 release on addition of GABA and AII: increased PGI2 release

## C[C@@H]1O[C@@H](O[C@H]2C[C@@H](O)[C@]3(CO)[C@H]4[C@H](O)C[C@]5(C)[C@@H](C6=CC(=O)OC6)CC[C@]5(O)[C@@H]4CC[C@]3(O)C2)[C@H](O)[C@H](O)[C@H]1O [Ouabain]
[3]; with AII, no Taurine (FIG. 2C)
  PGI2 levels on addition of Nanomolar Ouabain: significant increase in PGI2 levels
[3]; without AII, no Taurine (FIG. 2B)
  PGI2 levels on addition of Nanomolar Ouabain: significant increase in PGI2 levels
[4]; pregnant uterine vessels, Ouabain from 10^−10 M to 10^−9 M, low taurine, GABA approx. −7 M (FIGS. 4A, 4B)
  PGI2 release with increase in Ouabain: higher PGI2 release

## NCCS(=O)(=O)O [Taurine, 2-amino-ethane sulfonic acid]
[4]; pregnant uterine arteries, regardless of AII presence (FIG. 1A vs 1B)
  Overall PGI2 release with versus without Taurine: overall PGI2 release appears higher without Taurine

## CC(=O)Oc1ccccc1C(=O)O [aspirin]
Cyclooxygenase (COX)
  Resting blood pressure: does not substantially affect resting blood pressure

## CN1CCc2cc3c(cc2[C@H]1[C@@H]1OC(=O)c2c1ccc1c2OCO1)OCO3 [bicuculine]
[2]; pregnant systemic vessels (FIG. 5A)
  PGI2 release on blocking GABA-a receptors: reduced PGI2 release in both circuits
[4]; pregnant uterine arteries, even when additional GABA was added (FIG. 5B)
  PGI2 release on blocking GABA-a receptors: reduced PGI2 release in both circuits; also recorded: substantially reduced PGI2 release

## COc1ccc2c(c1)c(CC(=O)O)c(C)n2C(=O)c1ccc(Cl)cc1 [indomethacin]
Cyclooxygenase (COX)
  Resting blood pressure: does not substantially affect resting blood pressure

## Angiotensin II [AII]
[2]; pregnant systemic circuit, various GABA levels, compared with uterine circuit (FIG. 3B)
  Relationship between PGI2 release and AII presence: substantially inverted
[2]; pregnant systemic vessels, endothelium removed (FIG. 6)
  PGI2 release in the presence of AII, endothelium removed: increased
[3]; 18 day postpartum sheep, intact systemic vessels exposed to GABA, without Taurine or EO (FIG. 2A)
  PGI2 formation by presence or absence of Angiotensin II: no significant PGI2 formation
[3]; in the presence of Ouabain, especially at higher concentrations of GABA (FIGS. 2B vs 2C)
  PGI2 release on addition of AII: substantially more PGI2 release
[4]; pregnant uterine arteries, GABA provided, without taurine, various levels of Ouabain (FIG. 1A)
  Effect of presence or absence of AII on PGI2 release: negligible effect on PGI2 release
[4]; pregnant uterine arteries, bicuculine and GABA present (FIG. 5B col. 4)
  PGI2 release on further addition of AII: even further decreased PGI2
[4]; pregnant uterine circuit, most levels of GABA, no Taurine, no Ouabain (FIG. 3A)
  PGI2 release with versus without AII: more PGI2 is released in the presence of AII
[4]; pregnant uterine vessels, endothelium removed (FIG. 6)
  PGI2 release in the presence of AII, endothelium removed: reduced
